One molecule from patent EP3390415B1, “(R)- AND (S)-1-(3-(3-N,N-DIMETHYLAMINOCARBONYL)PHENOXYL-4-NITROPHENYL)-1-ETHYL-N,N'-BIS (ETHYLENE)PHOSPHORAMIDATE, COMPOSITIONS AND METHODS FOR THEIR USE AND PREPARATION” (OBI PHARMA, INC., priority 2015, dated 2017) can be followed below.

What all share (format): cell-based
Assay [1] relates to KYSE 270. The assay is described as follows: In vitro human tumor cell line cytotoxicity assay. Particulars: read-out: RelIC50.
Assay [2] relates to KYSE. The assay can be described thus: In vitro human tumor cell line cytotoxicity assay. The settings on record: read-out: RelIC50.
Assay [3] concerns Vcap. The assay is described as follows: In vitro human tumor cell line cytotoxicity assay. Particulars: for IC50: Homo sapiens, VCaP.
Assay [4] relates to GR-ST. The assay can be described thus: In vitro human tumor cell line cytotoxicity assay. Particulars: read-out: RelIC50.
In assay [5] the test system is ECa-109. The assay can be described thus: In vitro human tumor cell line cytotoxicity assay. The settings on record: read-out: RelIC50.
Assay [6] relates to H460 cells. The assay can be described thus: In vitro proliferation assay, H460. The settings on record: Homo sapiens, NCI-H460; 2 hrs exposure, wash, additional 70hrs, AlamarBlue; read-out: IC 50 in proliferation assay in H460 cells. As for the experimental part: In vitro proliferation data on the H460 […] human tumor cell line is reported above in the compound table. IC50 values are reported in micromolar and result from exposure of compound at various concentrations for 2 hrs followed by a wash step and addition of fresh media followed by growth and cell viability staining and comparison to a media only treated control.
Specifically, exponentially growing cells were seeded at a density of 4 x 10^3 cells per well in a 96 well plate and incubated at 37°C in 5% CO2, 95% air and 100% relative humidity for 24 hours prior to addition of test compounds. Compounds were solubilized in 100% DMSO at 200 times the desired final test concentration. At the time of drug addition, compounds were further diluted to 4 times the desired final concentration with complete medium. Aliquots of 50 µl of compound at specified concentrations were added to microtiter wells already containing 150 µl of medium, resulting in the final drug concentration reported. After drug addition, the plates were incubated for an additional 2 hours at 37°C, 5% CO2, 95% air, and 100% relative humidity, then the drug was washed off and fresh medium was added and the plates were incubated for addition 70hrs at 37 °C, 5% CO2, 95% air and 100% relative humidity. At the end of this incubation, the viable cells were quantified using the AlamarBlue assay. The drug concentration resulting in growth inhibition of 50% (IC50) was calculated using Prism software (Irvine, CA), and the results were listed in the table.

SMILES strings stand for the structures. Read-outs that look alike come from different tables or passages of the source.

Consider `C[C@H](OP(=O)(N1CC1)N1CC1)c1ccc([N+](=O)[O-])c(Oc2cccc(C(=O)N(C)C)c2)c1` (single isomer, unassigned) [TH3424], for which the IC50 was determined as 270 nM in assay [1]; 11 nM in assay [2]; 14.8 nM in assay [3] (read-out: AbsIC50); 13.2 nM in assay [3] (read-out: RelIC50); 99 nM in assay [4]; 17 nM in assay [5]. Also, the IC50 in assay [6] worked out at 4 nM. Further, the “Max Inhibition%” value in assay [3] (Vcap) is given as 101.4%. In assay [3] (Vcap), the “Min Inhibition%” value was -13.2%.
